Calls of active or inactive are those of the source. The calls are words filed in the database; no cut-off is given here.
How the values were obtained:
[1] = Induction of fetal hemoglobin in human bone marrow derived CD34+ cells incubated for 5 days by FITC staining based flow cytometry analysis; assay type: functional, tissue-based; settings: cd34-positive (myeloid/lymphoid) cell
[2] = Metabolic stability in monkey liver microsomes assessed as parent compound remaining at 0.5 mg/mL incubated for 0.5 hrs; assay type: ADME, Macaca mulatta, Microsome; settings: rhesus monkey, read-out: Stabilty
[3] = Metabolic stability in human liver microsomes assessed as parent compound remaining at 0.5 mg/mL incubated for 0.5 hrs; assay type: ADME, Microsome; settings: read-out: Stabilty
[4] = Induction of fetal hemoglobin in human bone marrow derived CD34+ cells assessed as maximum efficacy incubated for 5 days by FITC staining based flow cytometry analysis relative to decitabine; assay type: functional; settings: CD34-positive (myeloid/lymphoid) cell, 120 h, time 5 day
[5] = Half life in monkey at 10 mg/kg, po; assay type: ADME, organism-based, Macaca mulatta; settings: rhesus monkey, in vivo
[6] = Protein binding in monkey plasma; assay type: ADME, cell-free, Macaca mulatta; settings: rhesus monkey, read-out: PPB (converted)
hERG (KCNH2) = hERG (KCNH2) (Homo sapiens, UniProt Q12809); test: Inhibition of human ERG at 10 uM relative to control
[7] = Solubility of the compound in pH 1.2 JP1 fluid; assay type: physicochemical
[8] = AUClast in monkey at 10 mg/kg, po; assay type: ADME, organism-based, Macaca mulatta; parameters: route oral, time 0 - last, dose 10 mg/kg; settings: rhesus monkey, in vivo
[9] = Genotoxicity in Salmonella typhimurium by Ames test; assay type: toxicity; settings: salmonella enterica subsp. enterica serovar typhimurium
CYP3A4 [10] = target: T1, CYP3A4 (Homo sapiens, UniProt P08684); test: Inhibition of CYP3A4 (unknown origin) at 10 uM relative to control; assay type: ADME
CYP2D6 = CYP2D6 (Homo sapiens, UniProt P10635); test: Inhibition of CYP2D6 (unknown origin) at 10 uM relative to control; assay type: ADME
[11] = Solubility of the compound in pH 6.8 JP2 fluid; assay type: physicochemical
CYP2C9 = CYP2C9 (Homo sapiens, UniProt P11712); test: Inhibition of CYP2C9 (unknown origin) at 10 uM relative to control; assay type: ADME
CYP3A4 [12] = target: T1, CYP3A4; test: Mechanism based inhibition of CYP3A4 in human liver microsomes assessed as remaining percentage at 100 uM in presence of substrate incubated for 30 mins relative to control; assay type: ADME; settings: read-out: Activity
CYP1A2 = target: T2, CYP1A2 (Homo sapiens, UniProt P05177); test: Inhibition of CYP1A2 (unknown origin) at 10 uM relative to control; assay type: ADME
T2 sequence (P05177 whole entry): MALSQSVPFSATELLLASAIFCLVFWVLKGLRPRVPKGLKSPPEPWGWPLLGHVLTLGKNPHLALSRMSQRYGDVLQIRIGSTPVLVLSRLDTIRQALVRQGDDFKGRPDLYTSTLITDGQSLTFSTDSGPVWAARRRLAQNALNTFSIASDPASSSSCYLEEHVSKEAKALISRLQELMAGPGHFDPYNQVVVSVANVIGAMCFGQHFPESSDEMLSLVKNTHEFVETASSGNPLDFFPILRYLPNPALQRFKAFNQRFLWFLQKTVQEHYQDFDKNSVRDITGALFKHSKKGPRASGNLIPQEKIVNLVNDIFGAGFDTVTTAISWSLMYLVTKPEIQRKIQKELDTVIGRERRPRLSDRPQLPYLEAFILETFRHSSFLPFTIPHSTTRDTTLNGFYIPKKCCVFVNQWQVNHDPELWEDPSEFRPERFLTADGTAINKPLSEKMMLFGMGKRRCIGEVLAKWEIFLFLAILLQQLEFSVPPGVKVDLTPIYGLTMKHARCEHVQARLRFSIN

[13] = Cmax in monkey at 10 mg/kg, po; assay type: ADME, organism-based, Macaca mulatta; parameters: route oral, dose 10 mg/kg; settings: rhesus monkey, in vivo
[14] = AUClast in monkey at 1 mg/kg, po; assay type: ADME, organism-based, Macaca mulatta; parameters: route oral, time 0 - last, dose 1 mg/kg; settings: rhesus monkey, in vivo
[15] = Toxicity in cynomolgus monkey assessed as transient hypoglycemia at 30 mg/kg, po qd administered for 6 consecutive days; assay type: organism-based, Macaca fascicularis; settings: in vivo, 144 h, time 6 day
Macaca fascicularis [16] = test: In vivo induction of fetal hemoglobin in cynomolgus monkey assessed as gamma-globin gene expression at 30 mg/kg, po qd administered for 6 consecutive days by RT-qPCR analysis; assay type: functional, organism-based; settings: time 6.0 day
[17] = Half life in monkey at 1 mg/kg, po; assay type: ADME, organism-based, Macaca mulatta; settings: rhesus monkey, in vivo
[18] = Cytotoxicity against human bone marrow derived CD34+ cells assessed as effect on cell viability at 15 uM by propidium iodide staining based assay relative to control; parameters: species or system CD34-positive (myeloid/lymphoid) cell; settings: read-out: Activity
[19] = Cmax in monkey at 1 mg/kg, po; assay type: ADME, organism-based, Macaca mulatta; parameters: route oral, dose 1 mg/kg; settings: rhesus monkey, in vivo
Macaca fascicularis [20] = test: In vivo induction of fetal hemoglobin in po dosed cynomolgus monkey assessed as gamma-globin gene expression administered twice for 6 consecutive days by RT-qPCR analysis; assay type: functional, organism-based; settings: dose mg/kg 15-30, time 6.0 day
[21] = Cytotoxicity against human bone marrow derived CD34+ cells assessed as effect on cell viability at 0.47 to 15 uM by propidium iodide staining based assay; settings: cd34-positive (myeloid/lymphoid) cell, dose 0.47-15 µM

Chain of CYP2C9 (P11712 whole entry): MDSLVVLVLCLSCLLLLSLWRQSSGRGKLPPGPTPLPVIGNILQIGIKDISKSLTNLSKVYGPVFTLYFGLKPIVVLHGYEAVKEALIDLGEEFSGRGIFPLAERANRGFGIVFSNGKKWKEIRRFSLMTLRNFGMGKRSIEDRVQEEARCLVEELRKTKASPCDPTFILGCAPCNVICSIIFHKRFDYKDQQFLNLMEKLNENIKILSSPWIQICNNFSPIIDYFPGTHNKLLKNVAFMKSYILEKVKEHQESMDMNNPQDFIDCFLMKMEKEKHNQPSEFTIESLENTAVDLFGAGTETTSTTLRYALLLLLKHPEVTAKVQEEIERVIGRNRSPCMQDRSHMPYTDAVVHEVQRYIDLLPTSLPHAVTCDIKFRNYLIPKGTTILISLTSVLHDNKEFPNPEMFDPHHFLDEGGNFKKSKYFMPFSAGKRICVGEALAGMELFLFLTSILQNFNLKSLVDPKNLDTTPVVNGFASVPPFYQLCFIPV
Chain of CYP2D6 (P10635 whole entry): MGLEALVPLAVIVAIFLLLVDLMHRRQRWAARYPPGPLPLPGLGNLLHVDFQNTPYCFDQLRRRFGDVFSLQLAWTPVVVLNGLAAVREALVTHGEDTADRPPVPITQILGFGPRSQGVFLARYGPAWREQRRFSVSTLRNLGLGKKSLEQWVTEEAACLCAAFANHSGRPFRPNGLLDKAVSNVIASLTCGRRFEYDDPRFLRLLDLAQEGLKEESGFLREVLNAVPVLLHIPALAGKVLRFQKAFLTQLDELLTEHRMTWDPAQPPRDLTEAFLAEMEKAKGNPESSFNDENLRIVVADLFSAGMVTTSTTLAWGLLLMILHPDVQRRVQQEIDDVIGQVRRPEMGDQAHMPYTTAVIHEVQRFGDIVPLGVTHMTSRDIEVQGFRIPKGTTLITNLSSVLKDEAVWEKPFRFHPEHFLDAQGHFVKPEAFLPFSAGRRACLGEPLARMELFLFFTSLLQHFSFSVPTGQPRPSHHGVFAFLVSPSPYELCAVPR
T1 sequence (P08684 whole entry): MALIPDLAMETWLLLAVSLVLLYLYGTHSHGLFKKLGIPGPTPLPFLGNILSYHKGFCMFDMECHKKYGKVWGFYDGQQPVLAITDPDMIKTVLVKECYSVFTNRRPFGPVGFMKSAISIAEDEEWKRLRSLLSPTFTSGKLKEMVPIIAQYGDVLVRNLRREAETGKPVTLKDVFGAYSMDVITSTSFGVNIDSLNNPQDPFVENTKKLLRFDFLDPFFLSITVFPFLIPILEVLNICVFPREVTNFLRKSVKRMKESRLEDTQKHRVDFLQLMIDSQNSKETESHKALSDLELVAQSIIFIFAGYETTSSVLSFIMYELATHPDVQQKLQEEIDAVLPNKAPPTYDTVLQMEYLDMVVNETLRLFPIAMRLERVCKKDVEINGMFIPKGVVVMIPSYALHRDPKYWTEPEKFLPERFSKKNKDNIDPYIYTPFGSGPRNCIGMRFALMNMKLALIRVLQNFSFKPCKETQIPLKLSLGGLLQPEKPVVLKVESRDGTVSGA
Chain of hERG (KCNH2) (Q12809 whole entry): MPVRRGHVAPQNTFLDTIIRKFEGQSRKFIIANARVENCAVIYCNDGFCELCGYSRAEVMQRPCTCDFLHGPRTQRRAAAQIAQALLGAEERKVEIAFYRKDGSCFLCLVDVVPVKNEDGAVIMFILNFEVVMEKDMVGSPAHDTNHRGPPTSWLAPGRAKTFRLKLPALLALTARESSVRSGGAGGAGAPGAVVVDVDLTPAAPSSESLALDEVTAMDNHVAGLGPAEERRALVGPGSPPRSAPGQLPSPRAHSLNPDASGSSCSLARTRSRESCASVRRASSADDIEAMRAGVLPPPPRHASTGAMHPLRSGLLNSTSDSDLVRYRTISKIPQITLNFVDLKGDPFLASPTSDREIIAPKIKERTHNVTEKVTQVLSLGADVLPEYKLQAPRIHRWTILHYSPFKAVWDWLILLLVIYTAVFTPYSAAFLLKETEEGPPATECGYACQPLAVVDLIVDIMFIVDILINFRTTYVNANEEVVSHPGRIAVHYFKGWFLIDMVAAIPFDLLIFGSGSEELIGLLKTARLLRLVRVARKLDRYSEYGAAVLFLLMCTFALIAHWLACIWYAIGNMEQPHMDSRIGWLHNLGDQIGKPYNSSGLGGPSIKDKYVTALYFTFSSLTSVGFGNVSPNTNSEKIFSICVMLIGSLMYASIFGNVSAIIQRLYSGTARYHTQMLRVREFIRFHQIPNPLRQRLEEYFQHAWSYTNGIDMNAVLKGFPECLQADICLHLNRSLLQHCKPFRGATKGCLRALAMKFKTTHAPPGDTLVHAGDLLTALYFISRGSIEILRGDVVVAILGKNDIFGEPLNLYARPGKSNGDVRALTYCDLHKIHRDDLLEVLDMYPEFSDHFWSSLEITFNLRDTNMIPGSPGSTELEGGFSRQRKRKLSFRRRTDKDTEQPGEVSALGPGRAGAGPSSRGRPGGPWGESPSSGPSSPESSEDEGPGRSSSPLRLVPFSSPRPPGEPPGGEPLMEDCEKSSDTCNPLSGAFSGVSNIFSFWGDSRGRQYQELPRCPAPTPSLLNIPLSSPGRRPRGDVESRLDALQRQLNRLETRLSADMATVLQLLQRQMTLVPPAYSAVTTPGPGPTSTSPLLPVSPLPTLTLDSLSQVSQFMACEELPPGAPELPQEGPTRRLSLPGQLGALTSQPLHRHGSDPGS

Structure (SMILES)	EC50 [1]	remaining at 0.5 h [2]	remaining at 0.5 h [3]	Emax [4]	further results
CN(C)C(=O)CCN1CCc2c(cc(-c3ccc(F)cc3)n2C)C1=O	> 5 µM	42%	> 100%	–	–
CN(C)C(=O)CCN1CCn2cc(-c3ccc(F)cc3)cc2C1=O	> 5 µM	41%	94%	–	–
CN(C)C(=O)CCNC(=O)c1cc(C2CCCCC2)no1	> 5 µM	34%	> 100%	–	–
CCN1CC2(CC(NC(=O)c3cc(-c4ccccc4)no3)C2)C1	5 µM	87%	100%	50%	–
CN(C)C(=O)CCNC(=O)c1cc(-c2ccccc2)no1	1.7 µM	4.7%	81%	51%	–
CC(=O)N1CC(CNC(=O)c2cc(-c3ccccc3)no2)C1	> 5 µM	17%	50%	–	–
CS(=O)(=O)N1CC2(CC(NC(=O)c3cc(-c4ccccc4)no3)C2)C1	3.9 µM	87%	76%	45%	–
CC(=O)N1CC2(CC(NC(=O)c3cc(-c4ccccc4)no3)C2)C1	2.8 µM	64%	> 100%	54%	AUC(0-t) [14]: 4210 ng·h/mL; Activity [15]: Toxic; fraction unbound [6]: 0.41; inhibition at 10 µM (hERG (KCNH2)): 18%; solubility [7]: > 100 µg/mL; Activity [9]: Non-Toxic; inhibition at 10 µM (CYP3A4 [10]): < 0%; inhibition at 10 µM (CYP2D6): 2%; solubility [11]: > 100 µg/mL; Activity (Macaca fascicularis [16]): Active; inhibition at 10 µM (CYP2C9): < 0%; half-life [17]: 222 min; activity at 0.5 h, 100 µM (CYP3A4 [12]): 94%; viability at 15 µM [18]: 20%; Cmax [19]: 545 ng/mL; inhibition at 10 µM (CYP1A2): 3%; Activity (Macaca fascicularis [20]): Dose-dependent effect
CCC(=O)N1CC2(CC(NC(=O)c3cc(-c4ccccc4)no3)C2)C1	> 5 µM	69%	68%	47%	–
CC(C)C(=O)N1CC2(CC(NC(=O)c3cc(-c4ccccc4)no3)C2)C1	> 5 µM	55%	79%	27%	–
CC(=O)N1CC2(CC(NC(=O)c3cc(-c4ccc(F)cc4)no3)C2)C1	2.9 µM	79%	84%	64%	AUC(0-t) [14]: 2350 ng·h/mL; fraction unbound [6]: 0.28; solubility [7]: > 100 µg/mL; Activity [9]: Non-Toxic; inhibition at 10 µM (CYP3A4 [10]): < 0%; inhibition at 10 µM (CYP2D6): 1%; solubility [11]: > 100 µg/mL; inhibition at 10 µM (CYP2C9): < 0%; half-life [17]: 354 min; activity at 0.5 h, 100 µM (CYP3A4 [12]): 98%; Cmax [19]: 460 ng/mL; inhibition at 10 µM (CYP1A2): 1%; Activity [21]: Non-Toxic
CN(C)C(=O)CCN1CCc2[nH]c(-c3ccc(F)cc3)cc2C1=O	> 5 µM	39%	99%	–	–

The next lines start with results.

EC50 [1]	remaining at 0.5 h [2]	remaining at 0.5 h [3]	Structure (SMILES)	Emax [4]	further results
> 5 µM	35%	91%	CC(CC(=O)N(C)C)NC(=O)c1cc(-c2ccc(F)cc2)no1 (racemic)	–	–
> 5 µM	32%	90%	CN(C)C(=O)CCNC(=O)C1CSC(c2ccc(F)cc2)N1 (mixture of isomers)	–	–
2.8 µM	10%	87%	CN(C)C(=O)CCNC(=O)c1cc(-c2ccc(F)cc2)no1	56%	half-life [5]: 60 min; fraction unbound [6]: 0.42; inhibition at 10 µM (hERG (KCNH2)): 7.1%; solubility [7]: > 100 µg/mL; AUC(0-t) [8]: 4360 ng·h/mL; Activity [9]: Non-Toxic; inhibition at 10 µM (CYP3A4 [10]): < 0%; inhibition at 10 µM (CYP2D6): 5%; solubility [11]: > 100 µg/mL; inhibition at 10 µM (CYP2C9): 6%; activity at 0.5 h, 100 µM (CYP3A4 [12]): 97%; inhibition at 10 µM (CYP1A2): 6%; Cmax [13]: 1360 ng/mL
6.1 µM	11%	84%	CN(C)C(=O)CNC(=O)c1cc(-c2ccc(F)cc2)no1	41%	–
> 5 µM	4%	> 100%	CN(C)C(=O)CCNC(=O)c1cc(-c2ccccc2F)no1	37%	–
> 5 µM	–	–	CN(C)CCCNC(=O)c1cc(-c2ccc(F)cc2)no1	–	–
> 5 µM	52%	61%	CC(CNC(=O)c1cc(-c2ccc(F)cc2)no1)C(=O)N(C)C (racemic)	–	–
4.1 µM	–	–	CN(C)C(=O)CCCNC(=O)c1cc(-c2ccc(F)cc2)no1	55%	–
> 5 µM	36%	98%	CN(C)C(=O)CCN(C)C(=O)c1cc(-c2ccc(F)cc2)no1	–	–
> 5 µM	55%	> 100%	CN(C)C(=O)CCNC(=O)c1cc(-c2cccc(F)c2)no1	–	–
> 5 µM	0.1%	53%	CN(C)C(=O)CCNC(=O)c1csc(-c2ccc(F)cc2)n1	–	–

Reference: ChEMBL document CHEMBL4699452, “Design, synthesis, and optimization of a series of 2-azaspiro[3.3]heptane derivatives as orally bioavailable fetal hemoglobin inducers” (Bioorg Med Chem Lett, 2020)
